Measurements as given in patent US10221239B2, “TRPM4 channel inhibitors for stroke treatment” (Singapore Health Services Pte Ltd, priority 2013, dated 2019).
“Also recorded” adds a separate entry of the source.

Columns and labels:
TRPM5 channel = molecular target: T1, TRPM5 channel (Homo sapiens, UniProt Q9NZQ8); conditions: Grand T, et al. 2008; cited from earlier work
T1 sequence (Q9NZQ8 1-1165): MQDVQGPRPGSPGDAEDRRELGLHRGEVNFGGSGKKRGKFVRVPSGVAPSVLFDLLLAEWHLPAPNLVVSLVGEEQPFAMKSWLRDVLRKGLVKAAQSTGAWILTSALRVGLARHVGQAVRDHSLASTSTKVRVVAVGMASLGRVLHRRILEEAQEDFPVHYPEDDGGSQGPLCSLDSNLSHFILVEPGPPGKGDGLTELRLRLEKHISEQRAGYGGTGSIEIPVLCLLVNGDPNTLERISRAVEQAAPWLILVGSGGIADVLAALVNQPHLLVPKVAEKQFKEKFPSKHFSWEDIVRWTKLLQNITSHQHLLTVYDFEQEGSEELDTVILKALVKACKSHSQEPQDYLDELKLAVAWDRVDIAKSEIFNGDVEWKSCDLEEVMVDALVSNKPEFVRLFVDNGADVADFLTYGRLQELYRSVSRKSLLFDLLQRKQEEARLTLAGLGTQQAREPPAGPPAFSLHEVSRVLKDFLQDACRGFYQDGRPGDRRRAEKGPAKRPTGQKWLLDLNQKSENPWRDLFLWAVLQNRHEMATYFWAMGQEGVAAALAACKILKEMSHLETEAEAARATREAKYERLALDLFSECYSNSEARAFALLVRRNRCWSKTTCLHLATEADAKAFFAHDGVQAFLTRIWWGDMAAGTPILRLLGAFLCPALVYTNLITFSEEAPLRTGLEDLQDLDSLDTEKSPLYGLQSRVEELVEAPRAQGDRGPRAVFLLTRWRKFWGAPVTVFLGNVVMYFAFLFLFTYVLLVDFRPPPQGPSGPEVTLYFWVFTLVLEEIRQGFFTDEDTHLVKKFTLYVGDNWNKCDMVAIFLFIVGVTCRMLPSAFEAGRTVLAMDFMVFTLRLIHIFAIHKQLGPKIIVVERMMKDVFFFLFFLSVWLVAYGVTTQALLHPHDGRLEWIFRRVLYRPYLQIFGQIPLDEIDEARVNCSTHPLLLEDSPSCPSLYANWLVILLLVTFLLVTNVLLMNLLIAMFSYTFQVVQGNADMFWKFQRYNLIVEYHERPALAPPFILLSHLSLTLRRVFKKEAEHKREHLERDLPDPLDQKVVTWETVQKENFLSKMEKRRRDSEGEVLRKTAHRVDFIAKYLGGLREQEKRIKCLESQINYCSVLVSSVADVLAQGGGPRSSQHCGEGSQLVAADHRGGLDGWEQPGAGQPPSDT

HUVECs [1] = assay: Tube formation of HUVECs on Matrigel after OGD; assay type: cell-based, human; conditions: 5 μM
Experimental: (§1) HUVECs (Lonza, Wokingham, UK) were cultured at 37° C. with 5% CO2. The culture medium is endothelial growth medium-2 (EGM-2) consisting of endothelial basal medium (EBM), supplemented with 2% fetal bovine serum, hydrocortisone, hFGF, VEGF, R3-IGF-1, ascorbic acid, HEGF, GA-1000, and heparin (Lonza, Wokingham, UK). Cells at passage 6-10 were used for experiments. HUVECs were subjected to oxygen/glucose deprivation (OGD). To achieve supplement deprivation, EGM-2 was changed to EBM without fetal bovine serum or growth supplements. Hypoxia was induced by culturing the cells in a hypoxic chamber (Stem Cell Technologies, Vancouver, Canada) with 1% O2 and 5% CO2 at 37° C. for 24 hours.
HUVECs were divided into the following groups: Normoxia; Normoxia+5 μM 9-phenanthrol (Sigma); Hypoxia; and Hypoxia+5 μM 9-phenanthrol. A 24-well culture plate was precoated with 250 μl of growth factor-reduced Matrigel (Sigma, USA) at 37° C. for 30 minutes. 24 hours after OGD, 4×10^4 cells (in 300 μl of EGM-2) from each group were seeded onto the Matrigel-coated plates. The formation of capillary structures was examined under a light microscope after 4 hours. This study was replicated more than 4 times.

HUVECs [2] = assay: HUVEC cell death after oxygen/glucose deprivation (cell count, MTT); assay type: cell-based, human; conditions: 5 μM
Experimental: as §1

HUVECs [3] = assay: HUVEC cell number count after different doses of 9-phenanthrol; assay type: cell-based, human
Experimental: as §1
To test the functional impact of TRPM4 on HUVECs, the cells were incubated with the TRPM4-specific blocker 9-phenanthrol. […] A study was performed in which 9-phenantrol with the concentration ranged from 0.1 μM to 30 μM was added to HUVECs. […] Thus, 5 μM 9-phenanthrol was used to treat HUVECs.

TRPM4 homomers = TRPM4 homomers (Homo sapiens, UniProt Q8TD43); conditions: Sala-Rabanal M, et al. 2012; cited from earlier work
Sequence of TRPM4 homomers (Q8TD43 whole entry): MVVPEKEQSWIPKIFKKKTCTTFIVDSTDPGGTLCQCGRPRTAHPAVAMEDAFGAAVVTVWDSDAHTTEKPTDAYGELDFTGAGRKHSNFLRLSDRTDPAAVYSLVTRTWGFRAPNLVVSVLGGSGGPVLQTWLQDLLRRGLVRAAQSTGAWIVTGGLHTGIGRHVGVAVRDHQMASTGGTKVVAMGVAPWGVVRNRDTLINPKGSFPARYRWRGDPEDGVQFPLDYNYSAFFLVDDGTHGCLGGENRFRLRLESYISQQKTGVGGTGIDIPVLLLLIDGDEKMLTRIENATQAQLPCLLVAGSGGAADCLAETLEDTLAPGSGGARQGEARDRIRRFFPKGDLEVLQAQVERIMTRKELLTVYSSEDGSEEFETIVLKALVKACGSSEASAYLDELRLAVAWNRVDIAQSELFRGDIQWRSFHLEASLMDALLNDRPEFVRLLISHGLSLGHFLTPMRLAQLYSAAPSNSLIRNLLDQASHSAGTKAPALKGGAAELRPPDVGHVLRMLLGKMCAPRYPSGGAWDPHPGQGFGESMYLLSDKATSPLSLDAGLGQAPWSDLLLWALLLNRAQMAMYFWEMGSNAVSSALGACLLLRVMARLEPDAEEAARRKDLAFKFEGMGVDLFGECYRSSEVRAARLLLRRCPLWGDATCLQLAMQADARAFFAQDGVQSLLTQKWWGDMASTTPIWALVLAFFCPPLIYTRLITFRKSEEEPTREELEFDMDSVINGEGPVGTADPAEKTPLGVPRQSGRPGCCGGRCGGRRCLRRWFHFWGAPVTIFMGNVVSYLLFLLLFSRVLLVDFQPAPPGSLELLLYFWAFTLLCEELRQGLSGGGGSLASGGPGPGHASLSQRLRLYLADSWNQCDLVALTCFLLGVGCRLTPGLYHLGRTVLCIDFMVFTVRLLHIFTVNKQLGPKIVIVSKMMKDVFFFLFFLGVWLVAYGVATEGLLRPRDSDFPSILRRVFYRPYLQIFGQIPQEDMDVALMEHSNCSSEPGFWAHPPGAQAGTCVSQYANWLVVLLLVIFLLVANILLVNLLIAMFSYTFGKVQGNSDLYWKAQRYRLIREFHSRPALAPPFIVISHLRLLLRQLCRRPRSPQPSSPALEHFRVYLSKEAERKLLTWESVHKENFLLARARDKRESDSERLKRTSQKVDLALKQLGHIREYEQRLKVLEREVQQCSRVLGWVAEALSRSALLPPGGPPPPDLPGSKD

SMILES: Oc1cc2ccccc2c2ccccc12 [9-phenanthrol]
- effect on TRPM5 channel (TRPM5 channel): does not affect
- tube formation (tube branches) on Matrigel (HUVECs [1]): large enhancement; also recorded: significantly increased
- cell death after OGD (HUVECs [2]; 24 hours OGD): did not reduce cell death
- MTT assay cell viability (HUVECs [2]; vs control cells): no difference
- HUVEC cell number count (HUVECs [2]; vs control cells, normoxia and hypoxia 24 hours): no difference
- cell death (HUVECs [3]; 10 μM 9-phenanthrol in culture medium): Cell death became prominent
- cell survival (HUVECs [3]; 30 μM 9-phenanthrol): Very few cells survived
- cell death (HUVECs [3]; 9-phenanthrol between 0.1 μM and 5 μM): No difference

SMILES: COc1ccc(Cl)cc1C(=O)NCCc1ccc(S(=O)(=O)NC(=O)NC2CCCCC2)cc1 [glibenclamide]
- sensitivity of TRPM4 homomers (TRPM4 homomers): not sensitive
